Tests used:
[1] = tested on: human aortic endothelial cells (HAEC); test: HAEC proliferation and competition assays with soluble peptide motifs; format: cell-based; settings: 100% RAD16-I, no soluble peptide, improved cell isolation
Method: Meanwhile, human aortic endothelial cells (HAEC) (CC-2535, Cambrex, MD) that had been maintained under standard culture conditions (passage 5-6) were harvested at 80% confluence using trypsin and loaded on top of the preformed peptide scaffolds at a cell density of 8×10^4 cells/cm^2 and cultured in the cell culture incubator at 37° C. with 5% CO2. Cell attachment assays were performed one hour after the initial cell loading. To perform the assays, the covering media was removed, and unattached cells were counted on a hematocytometer. Cell counting was performed by mechanically disrupting the scaffold containing cells by pipetting up and down and then counting cells on a hematocytometer after performing Trypan blue (T 9906, Sigma, MO) exclusion assay staining to assess cell viability. In some experiments, for comparison, EC were cultured on inserts coated with Matrigel or collagen (1.5 mg/ml, i.e. 0.15%) according to standard protocols.
Competition assays with free soluble peptide sequences. HAEC were cultured as described on peptide scaffolds in cell culture inserts as described above. For each scaffold, the corresponding soluble motif sequence, or one of the other motifs not present in the scaffold, was added to the media of HAEC cultures at a final concentration of 400 μg/ml. Half of the media was changed every other day. […] The next day, cell numbers were evaluated as described above. […]

neurons = neurons grown on surface; cited from earlier work
[2] = Circular dichroism (secondary structure); format: physicochemical; settings: 25 μM peptide in water, room temperature, 195-250 nm
Method: Circular dichroism (DC). CD spectra were gathered on an Aviv model 202 spectropolarimeter. Samples were prepared by diluting stock peptide solutions in water (0.5%) to a working concentration of 25 μM. Samples were analysed at room temperature in a quartz cuvette with a path length of 0.3 cm and in the wavelength range 195-250 nm.
Circular dichroism. CD spectra were obtained for each peptide sequence to assess its secondary structure. The secondary structure identifies ordered structures within a polypeptide such as α-helices and β-sheets. […] (Havel, 1996).

CC(=O)N[C@@H](CCCNC(=N)N)C(=O)N[C@@H](C)C(=O)N[C@@H](CC(=O)O)C(=O)N[C@@H](C)C(=O)N[C@@H](CCCNC(=N)N)C(=O)N[C@@H](C)C(=O)N[C@@H](CC(=O)O)C(=O)N[C@@H](C)C(=O)N[C@@H](CCCNC(=N)N)C(=O)N[C@@H](C)C(=O)N[C@@H](CC(=O)O)C(=O)N[C@@H](C)C(=O)N[C@@H](CCCNC(=N)N)C(=O)N[C@@H](C)C(=O)N[C@@H](CC(=O)O)C(=O)N[C@@H](C)C(N)=O [RAD16-I, AcN-(RADA)4-CONH2]
HAEC proliferation lower than on scaffolds made from peptide blends [1]: 2-2.5 fold
neurite outgrowth and synapse formation on peptide structure (neurons): able to serve as a substrate for neurite outgrowth and formation of functionally active synapses
Secondary structure (CD) [2]: β-sheet

— patent US7713923B2, “Self-assembling peptides incorporating modifications and methods of use thereof” (Massachusetts Institute of Technology, priority 2003, dated 2010)
